According to PubChem BioAssay AID330 (DTP/NCI, 2004):
“And” between values parts separate entries of the source, which are not always exact repeats. Equal values may be shown once. Toxic doses and inconclusive results are not listed. Rule for the calls: active = survival T/C of 150% or more; inactive = T/C below 125% in these data.

Tested on: P388 leukemia ip, CD2F1 mice, survival T/C
Test: NCI In Vivo Anticancer Drug Screen. Data for tumor model P388 Leukemia (intraperitoneal) in CD2F1 (CDF1) mice
Details: endpoint: median survival time, higher = longer survival
Procedure, shortened: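 Mice carrying the transplanted tumor received test compound or vehicle. Survival was recorded in each group, and the value is the treated-group measurement divided by that of the vehicle-treated control group.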

[1] = dose: 50.0 mg/kg/injection, schedule: Q01DX009 (ip), vehicle: saline
[2] = dose: 100.0 mg/kg/injection, schedule: Q01DX009 (ip), vehicle: saline
[3] = dose: 200.0 mg/kg/injection, schedule: Q01DX009 (ip), vehicle: saline
[4] = dose: 12.5 mg/kg/injection, schedule: Q01DX009 (ip), vehicle: saline with Tween-80
[5] = dose: 50.0 mg/kg/injection, schedule: Q01DX009 (ip), vehicle: saline with Tween-80
[6] = dose: 100.0 mg/kg/injection, schedule: Q01DX001 (ip), vehicle: saline with Tween-80
[7] = dose: 100.0 mg/kg/injection, schedule: Q01DX009 (ip), vehicle: saline with Tween-80
[8] = dose: 200.0 mg/kg/injection, schedule: Q01DX001 (ip), vehicle: saline with Tween-80
[9] = dose: 400.0 mg/kg/injection, schedule: Q01DX001 (ip), vehicle: saline with Tween-80
[10] = dose: 50.0 mg/kg/injection, schedule: Q01DX005 (ip), vehicle: Klucel (hydroxypropylcellulose) (HPC)
[11] = dose: 60.0 mg/kg/injection, schedule: Q01DX005 (ip), vehicle: saline with Tween-80
[12] = dose: 100.0 mg/kg/injection, schedule: Q01DX005 (ip), vehicle: Klucel (hydroxypropylcellulose) (HPC)
[13] = dose: 120.0 mg/kg/injection, schedule: Q01DX005 (ip), vehicle: saline with Tween-80
[14] = dose: 200.0 mg/kg/injection, schedule: Q01DX005 (ip), vehicle: Klucel (hydroxypropylcellulose) (HPC)
[15] = dose: 240.0 mg/kg/injection, schedule: Q01DX005 (ip), vehicle: saline with Tween-80
[16] = dose: 100.0 mg/kg/injection, schedule: Q04DX003 (ip), vehicle: saline with Tween-80
[17] = dose: 12.5 mg/kg/injection, schedule: Q01DX009 (ip), vehicle: water
[18] = dose: 25.0 mg/kg/injection, schedule: Q01DX009 (ip), vehicle: water
[19] = dose: 50.0 mg/kg/injection, schedule: Q01DX009 (ip), vehicle: water
[20] = dose: 100.0 mg/kg/injection, schedule: Q01DX009 (ip), vehicle: water
[21] = dose: 15.0 mg/kg/injection, schedule: Q01DX005 (ip), vehicle: saline with Tween-80
[22] = dose: 50.0 mg/kg/injection, schedule: Q01DX009 (ip), vehicle: Klucel (hydroxypropylcellulose) (HPC)
[23] = dose: 100.0 mg/kg/injection, schedule: Q01DX009 (ip), vehicle: Klucel (hydroxypropylcellulose) (HPC)
[24] = dose: 200.0 mg/kg/injection, schedule: Q01DX009 (ip), vehicle: Klucel (hydroxypropylcellulose) (HPC)
[25] = dose: 50.0 mg/kg/injection, schedule: Q01DX005 (ip), vehicle: saline
[26] = dose: 100.0 mg/kg/injection, schedule: Q01DX005 (ip), vehicle: saline

Measured: T/C

COc1ccc2nc3cc(Cl)ccc3c(SCC(=O)OCC(=O)[C@@]3(O)CC[C@H]4[C@@H]5CCC6=CC(=O)C=C[C@]6(C)[C@H]5C(=O)C[C@@]43C)c2c1
inactive: [1] 118 % of control | [2] 108 % of control | [3] 110 % of control

CC1=CCCC2C1(C)CCC(C)C2(C)Cc1cc(O)ccc1O (centres undefined)
inactive: [4] 100 % of control | dose: 25.0 mg/kg/injection, schedule: Q01DX009 (ip), vehicle: saline with Tween-80 103 % of control | [5] 107 % of control | [6] 97 % of control | [7] 94 % of control | [8] 99 % of control | [9] 88 % of control

c1ccc2c(c1)[nH]c1c(N3CCOCC3)nnc(N3CCOCC3)c12
inactive: [10] 99 % of control | [11] 103 % of control | [12] 98 % of control | [13] 96 % of control | [14] 98 % of control | [15] 90 % of control

Cc1ccc(N)c2ccccc12
inactive: [1] 117 % of control | [2] 112 % of control

O=C(CCCCCCCC(=O)Nc1ccc2[nH]c3ccccc3c(=O)c2c1)Nc1ccc2[nH]c3ccccc3c(=O)c2c1
inactive: dose: 50.0 mg/kg/injection, schedule: Q01DX005 (ip), vehicle: saline with Tween-80 107 % of control | dose: 100.0 mg/kg/injection, schedule: Q01DX005 (ip), vehicle: saline with Tween-80 107 % of control | dose: 200.0 mg/kg/injection, schedule: Q01DX005 (ip), vehicle: saline with Tween-80 106 % of control

CC(C)C(/C=C/c1ccccc1)=N\NS(=O)(=O)c1ccccc1
inactive: [6] 105 % of control | [8] 98 % of control | [9] 96 % of control

COc1cc(N(C)C)c(OC)cc1/C=C\c1ccnc2ccccc12
inactive: [16] 111 % of control

[NH-]C(CO)C(=O)O.[NH-]C(CO)C(=O)O.[Pt+2] (centres undefined)
inactive: dose: 3.13 mg/kg/injection, schedule: Q01DX009 (ip), vehicle: water 91 % of control | dose: 6.25 mg/kg/injection, schedule: Q01DX009 (ip), vehicle: water 91 % of control | [17] 97 % of control | [18] 106 % of control | [19] 115 % of control | [20] 115 % of control

CCN(CC)P1(=O)OC(c2ccccc2)=CCN1c1ccc(OC)cc1 (centres undefined)
inactive: [10] 102 % of control | [12] 110 % of control | [14] 103 % of control

CNc1ccccc1C(=O)NNC(=O)Nc1ccc(SC)cc1
inactive: [5] 103 % of control | [7] 97 % of control | dose: 200.0 mg/kg/injection, schedule: Q01DX009 (ip), vehicle: saline with Tween-80 100 % of control

Cc1cc2nc(CC(=O)c3ccc4ccccc4c3)c(=O)[nH]c2cc1C
inactive: [21] 91 % of control | dose: 30.0 mg/kg/injection, schedule: Q01DX005 (ip), vehicle: saline with Tween-80 91 % of control | [11] 90 % of control

CCOC(=O)CN=CC1CCC=CO1 (centres undefined)
inactive: [16] 100 % of control | dose: 200.0 mg/kg/injection, schedule: Q04DX003 (ip), vehicle: saline with Tween-80 100 % of control | dose: 400.0 mg/kg/injection, schedule: Q04DX003 (ip), vehicle: saline with Tween-80 100 % of control

COc1ccc(-c2cc(=O)c3ccc4cc(OC)c(OC)cc4c3o2)cc1
inactive: dose: 12.5 mg/kg/injection, schedule: Q01DX009 (ip), vehicle: other 91 % of control | dose: 100.0 mg/kg/injection, schedule: Q01DX009 (ip), vehicle: other 88 % of control | dose: 200.0 mg/kg/injection, schedule: Q01DX009 (ip), vehicle: other 91 % of control

CSc1cccc(NC(=O)N2CCN(C)CC2)c1
inactive: [22] 89 % of control | [23] 91 % of control | [24] 94 % of control

CCOC(=O)c1c(Br)c2c3ccccc3c3ccccc3n2c1C
inactive: [11] 100 % of control | [13] 111 % of control | [15] 100 % of control

CC1=CCCN(C)C1c1ccccc1 (centres undefined)
inactive: [25] 99 % of control | [26] 99 % of control

COc1ccc[nH]c1=O
inactive: [1] 102 % of control and 103 % of control | [2] 106 % of control and 109 % of control | [3] 100 % of control and 105 % of control | dose: 400.0 mg/kg/injection, schedule: Q01DX009 (ip), vehicle: saline 105 % of control and 112 % of control | dose: 600.0 mg/kg/injection, schedule: Q01DX009 (ip), vehicle: saline 106 % of control and 114 % of control

COc1ccc2c(c1)C(c1ccccc1)SC(c1ccccc1)=C2 (centres undefined)
inactive: [22] 107 % of control | [23] 100 % of control | [24] 99 % of control

O=C(O)C1C2C(=O)N(CO)C(=O)C2C(C(=O)O)C2C3C(=O)N(CO)C(=O)C3C12 (centres undefined)
inactive: [17] 108 % of control | [18] 99 % of control | [19] 102 % of control and 105 % of control and 92 % of control | [20] 107 % of control and 117 % of control and 120 % of control | dose: 200.0 mg/kg/injection, schedule: Q01DX009 (ip), vehicle: water 114 % of control and 120 % of control

CCCCCCCN(CCCCCCC)CC(O)c1cc2ccc(Cl)cc2nc1-c1ccc(Cl)cc1 (centres undefined)
inactive: dose: 100.0 mg/kg/injection, schedule: Q01DX001 (ip), vehicle: saline sonified 90 % of control | dose: 200.0 mg/kg/injection, schedule: Q01DX001 (ip), vehicle: saline sonified 90 % of control | dose: 400.0 mg/kg/injection, schedule: Q01DX001 (ip), vehicle: saline sonified 104 % of control

O=C(CNC(=O)c1ccc(Cl)cc1Cl)N/N=C/c1ccc(Cl)c(Cl)c1
inactive: dose: 3.13 mg/kg/injection, schedule: Q01DX009 (ip), vehicle: saline with Tween-80 104 % of control | dose: 6.25 mg/kg/injection, schedule: Q01DX009 (ip), vehicle: saline with Tween-80 108 % of control | [4] 104 % of control

CC(C)C(C=O)C(O)(C(F)(F)F)C(F)(F)Cl (centres undefined)
inactive: dose: 12.5 mg/kg/injection, schedule: Q04DX003 (ip), vehicle: saline with Tween-80 100 % of control | dose: 25.0 mg/kg/injection, schedule: Q04DX003 (ip), vehicle: saline with Tween-80 90 % of control | dose: 50.0 mg/kg/injection, schedule: Q04DX003 (ip), vehicle: saline with Tween-80 95 % of control

Nc1c[nH]c2ccccc2c1=O
inactive: [22] 104 % of control | [23] 101 % of control | [24] 100 % of control

S=C1N(c2ccccc2)CCN1c1ccccc1
inactive: dose: 60.0 mg/kg/injection, schedule: Q01DX005 (ip), vehicle: Klucel (hydroxypropylcellulose) (HPC) 101 % of control | dose: 120.0 mg/kg/injection, schedule: Q01DX005 (ip), vehicle: Klucel (hydroxypropylcellulose) (HPC) 100 % of control | dose: 240.0 mg/kg/injection, schedule: Q01DX005 (ip), vehicle: Klucel (hydroxypropylcellulose) (HPC) 94 % of control

COc1c2ccoc2cc2oc(COC3OC(CO)C(O)C(O)C3O)cc(=O)c12 (centres undefined)
inactive: dose: 12.5 mg/kg/injection, schedule: Q01DX005 (ip), vehicle: saline 100 % of control | dose: 25.0 mg/kg/injection, schedule: Q01DX005 (ip), vehicle: saline 108 % of control | [25] 106 % of control and 108 % of control

Cc1cc(C)nc(NS(=O)(=O)c2ccc(Nc3c4ccccc4nc4c([N+](=O)[O-])cccc34)cc2)n1
inactive: dose: 3.75 mg/kg/injection, schedule: Q01DX005 (ip), vehicle: saline with Tween-80 100 % of control | dose: 7.5 mg/kg/injection, schedule: Q01DX005 (ip), vehicle: saline with Tween-80 100 % of control | [21] 97 % of control

O/N=C(\CNC/C(=N\O)NO)NO
inactive: [10] 90 % of control | [12] 97 % of control | [14] 93 % of control

O=c1oc2ccccc2c(O)c1C(c1ccc2c(c1)OCO2)N1CCOCC1 (centres undefined)
inactive: [25] 113 % of control | [26] 110 % of control | dose: 200.0 mg/kg/injection, schedule: Q01DX005 (ip), vehicle: saline 103 % of control
